For one assay, the target named is T1, hKCNK3 (Homo sapiens, UniProt O14649).
T1 construct: expressed in transfected cells; host or cells: Xenopus laevis oocytes injected with cRNA (plasmid pIRES-CD8, gift of Dr. Fabrice Duprat)
The assay can be described thus: Two-electrode voltage clamp on Xenopus laevis oocytes expressing hKCNK3. The assay is classed as cell-based. Particulars: for effect on basal activity of hKCNK3: 1 mM; for % of basal activity after saturating concentrations: hKCNK3 in Xenopus oocytes. From the text: (§1) Human KCNK3 (TASK-1, K2P3.1) cloned into the expression vector pIRES-CD8 was a gift from Dr. Fabrice Duprat (Institut National de la Santé et de la Recherche Médicale, Antipolis, France). Human KCNK18 (hTRESK, K2P18.1), cloned into the plasmid pEXO, was a gift from Dr. P. Enyedi (Semmelweis University, Budapest, Hungary). These plasmids were linearized with the restriction enzymes BamHI and XbaI, respectively, and then used as templates for in vitro transcription. Human KCNK9 (hTASK-3, K2P9.1) cloned into the expression vector pCR4-TOPO, was purchased from Imagenes (Berlin, Germany). The plasmid was linearized with the restriction enzyme SspI, to generate a linear cDNA template for in vitro transcription. mKCNK3 was isolated from mouse heart by standard procedures and inserted into pSGEM. mKCNK9 and mKCNK18 were kindly provided by Dr. D. Bayliss (University of Virginia, Charlottesville, VA, United States) and Prof. Dr. P. Enyedi (Semmelweis University, Budapest, Hungary). Both channels were subcloned into pSGEM. The pSGEM plasmids were subsequently linearized with the restriction enzyme PacI. The capped RNAs were synthesized in the presence of the capping analog m7G(5′)ppp(5′)G using the AmpliCap-T7 Message Maker kit (Epicentre, Madison, WI, United States). The cRNA was dissolved in nuclease-free water to obtain a final concentration of 100 ng/μL.
(§2) The expression in Xenopus laevis oocytes was essentially performed as previously described ([Beltrán et al., 2013]). Briefly, mature female Xenopus laevis frogs were anesthetized with 0.15% MS-222, and surgery was performed according to standard methods, where the extracted ovarian lobes were placed into Ca^2+-free Barth solution containing collagenase type II (Worthington Biochemical Corporation, Lakewood, NJ, United States) and kept for 90 min on a shaker at 40 rpm (room temperature). Healthy stage V and VI oocytes were selected for injection with cRNA coding for the proteins of interest. Thirty nanoliters of cRNA (100 ng/μL) of each channel were injected using a Microinjector Micro 4 ^TM (World Precision Instruments). After injection, the oocytes were kept in ND96 (96 mM NaCl; 2 mM KCl; 1.8 mM CaCl2; 1 mM MgCl2; 2.5 mM Sodium pyruvate; 10 mM, HEPES [4-(2-hydroxyethyl)-1-piperazineethanesulfonic acid), pH 7.4]. The measurements were performed 24 to 72 h after injection. The oocytes were placed in a 100 μL chamber that was perfused with frog Ringer’s solution (115 mM NaCl; 2.5 mM KCl; 1.8 mM CaCl2, and 10 mM HEPES, pH 7.2). The substances were dissolved in this solution before being manually applied to the oocytes using an automatic pipette (Research pro, Eppendorf, Germany). The application time was usually three ramps (approximately 10 s). For recording, a Turbo Tec-03x (npi electronic GmbH, Tamm, Germany) amplifier was used, with an acquisition rate of 1000 Hz and a low pass filter of 20 Hz. Borosilicate glass capillaries were pulled with a Kopf vertical pipette puller. The pulled glass capillaries were filled with 3 M KCl.
A ramp series protocol was used to evaluate the activity of KCNK channels as previously described ([Beltrán et al., 2013]). Briefly, voltage ramps from –100 mV to + 50 mV ([…]) followed by a constant of +50 mV (150 ms) were applied at a time interval of 2 s. […] This value was then normalized to the average obtained from three ramps prior to the application. In most cases, the currents elicited by this voltage-clamp ramp series protocol were more than ten times larger than the background currents observed in uninjected oocytes, while also presenting the described outward rectification under physiological concentrations of intracellular and extracellular K^+ ([Goldstein et al., 2001]; [Enyedi and Czirják, 2010]). Due to these characteristics, no leakage subtraction was considered necessary. Oocytes not fulfilling these characteristics were not considered for data analysis. […]

The target in the next assay is T2, hKCNK9 (Homo sapiens, UniProt Q9NPC2).
T2 construct: host or cells: Xenopus laevis oocytes injected with cRNA (plasmid pCR4-TOPO)
The assay can be described thus: Two-electrode voltage clamp on Xenopus laevis oocytes expressing hKCNK9. Type of assay: cell-based. Particulars: for effect on basal activity of hKCNK9: 1 mM.
From the text: as §1
as §2, with “For recording, a Turbo Tec-03x (npi electronic GmbH, Tamm, Germany) amplifier was used, with an acquisition rate of 1000 Hz and a low pass filter of 20 Hz. Borosilicate glass capillaries were pulled with a Kopf vertical pipette puller. The pulled glass capillaries were filled with 3 M KCl.” left out

A further assay has as its target T3, hKCNK18 (Homo sapiens, UniProt Q7Z418).
T3 construct: expressed in transfected cells; host or cells: Xenopus laevis oocytes injected with cRNA (plasmid pEXO, gift of Dr. P. Enyedi)
T3 sequence (Q7Z418 1-384): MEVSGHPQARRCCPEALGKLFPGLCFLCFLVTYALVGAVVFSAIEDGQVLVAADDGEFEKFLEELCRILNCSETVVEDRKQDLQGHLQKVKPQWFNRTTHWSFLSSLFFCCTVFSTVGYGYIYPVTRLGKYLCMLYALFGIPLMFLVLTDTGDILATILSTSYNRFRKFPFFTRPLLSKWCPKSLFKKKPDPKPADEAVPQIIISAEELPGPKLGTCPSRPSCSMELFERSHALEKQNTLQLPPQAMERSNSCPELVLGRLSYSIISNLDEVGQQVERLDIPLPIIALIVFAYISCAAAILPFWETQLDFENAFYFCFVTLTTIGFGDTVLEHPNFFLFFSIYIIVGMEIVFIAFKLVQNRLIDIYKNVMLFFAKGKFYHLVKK
As to the kind of experiment: Two-electrode voltage clamp on Xenopus laevis oocytes expressing hKCNK18. The assay is classed as cell-based.
From the text: as §1
The expression in Xenopus laevis oocytes was essentially performed as previously described ([Beltrán et al., 2013]). Briefly, mature female Xenopus laevis frogs were anesthetized with 0.15% MS-222, and surgery was performed according to standard methods, where the extracted ovarian lobes were placed into Ca^2+-free Barth solution containing collagenase type II (Worthington Biochemical Corporation, Lakewood, NJ, United States) and kept for 90 min on a shaker at 40 rpm (room temperature). Healthy stage V and VI oocytes were selected for injection with cRNA coding for the proteins of interest. Thirty nanoliters of cRNA (100 ng/μL) of each channel were injected using a Microinjector Micro 4 ^TM (World Precision Instruments). […]

In another assay the test system is tongue surface. Also on record: method as in Dawid et al., 2012. Particulars: human, ref Dawid et al., 2012, cited from earlier work; for pungent threshold concentration / tingling threshold concentration: filter paper on tongue.
Assay [1] relates to background current of mouse trigeminal neurons. As to the kind of experiment: Whole-cell patch clamp on cultured mouse trigeminal neurons. The assay is classed as cell-based. As to conditions: 100 μM XE-991, Na+/Ca2+-free solution. The protocol: Trigeminal ganglia neurons were isolated from Swiss CD-1 mice (Charles River Laboratories, Sulzfeld, Germany). All experiments involving animals were carried out in accordance with the European Union Community Council’s guidelines and approved by the competent state office of the Federal Land of Northrhine Westphalia (file number 87-51.04.2010.A180). At postnatal day 2–5, the mice were sacrificed by decapitation. The brain was removed, and both trigeminal ganglia were excised. The ganglia were washed in PBS+/+ (Invitrogen, Karlsruhe, Germany) and collected in Leibovitz Medium (L15, Invitrogen) on ice. The ganglia were transferred to Dulbecco’s modified essential medium (DMEM) containing 0.025% collagenase (type IA, Sigma–Aldrich). The minced ganglia were incubated for 45 min in a humidified atmosphere (37°C, 95% humidity, 6% CO2) before trituration. The cell suspension was centrifuged at 1000 rpm for 4 min at room temperature and the pellet was resuspended in F-12 medium (Invitrogen; 31331-D-MEM/F-12, GlutaMax^TM) supplemented with 10% fetal bovine serum (FBS^TM; Invitrogen), 200 U/mL penicillin and 200 U/mL streptomycin. The cell suspension (50 μL) was then plated on poly L-lysine (0.01%) coated glass coverslips (30 mm, Sarstedt, Nümbrecht, Germany), placed in cell culture dishes (35 mm) and kept in a humidified atmosphere (37°C, 95% humidity, 6% CO2) for 1 h. Subsequently, F-12 medium (2 mL) supplemented with FBS (10%), 200 U/mL penicillin and 200 U/mL streptomycin was added to each dish. The cells were kept in an incubator (37°C, 95% humidity, 6% CO2) until use.
The recordings were performed using the whole-cell configuration of the patch-clamp technique. The cells were maintained in an extracellular recording solution containing 140 mM NaCl, 5 mM KCl, 2 mM MgCl2, 2 mM CaCl2, 10 mM HEPES and 10 mM glucose, pH 7.4. The Ca^2+ and Na^+- free extracellular solution contained: 140 mM NMDG-Cl, 5 mM KCl, 2 mM MgCl2, 5 mM EGTA, 10 mM HEPES, pH 7.4. The patch electrodes were pulled from borosilicate glass (1.2 mm OD × 1.17 mm ID; Harvard apparatus, Edenbridge, Kent, United Kingdom) and fire polished to 2.5–4 MΩ tip resistance using a horizontal pipette puller (Zeitz Instruments, Munich, Germany) to obtain a patch of approximately 1–2 μm diameter. The pipette solution contained 140 mM KCl, 1 mM MgCl2, and 10 mM HEPES, pH 7.4. All recordings were performed at room temperature with an EPC7 amplifier (List-Medical Electronic, Darmstadt, Germany). The capacity and serial resistance were adjusted manually. The substances were applied via a custom-made manifold superfusion device. […] The data were acquired using Pulse software (HEKA, Lambrecht, Germany) and analyzed with PulseFit (HEKA, Lambrecht, Germany). Unless otherwise stated, the data are expressed as the mean ± SEM. […]

[2] abbreviates: Xenopus oocytes, current at +50 mV normalized to pre-application, read-out: IC50 on hKCNK3.

Like-named read-outs stand apart in the source and are kept apart here.

T1 sequence (O14649 whole entry): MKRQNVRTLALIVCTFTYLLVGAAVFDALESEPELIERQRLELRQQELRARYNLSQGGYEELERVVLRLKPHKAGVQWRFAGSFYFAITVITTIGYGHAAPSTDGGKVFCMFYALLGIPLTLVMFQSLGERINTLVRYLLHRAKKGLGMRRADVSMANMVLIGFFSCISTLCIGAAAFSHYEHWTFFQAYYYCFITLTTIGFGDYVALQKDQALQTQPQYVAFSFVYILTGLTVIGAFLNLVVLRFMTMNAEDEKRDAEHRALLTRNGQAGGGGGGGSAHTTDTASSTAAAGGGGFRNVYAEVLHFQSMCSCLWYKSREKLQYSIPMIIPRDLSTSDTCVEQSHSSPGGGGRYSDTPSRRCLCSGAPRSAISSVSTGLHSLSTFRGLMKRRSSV
T2 sequence (Q9NPC2 whole entry): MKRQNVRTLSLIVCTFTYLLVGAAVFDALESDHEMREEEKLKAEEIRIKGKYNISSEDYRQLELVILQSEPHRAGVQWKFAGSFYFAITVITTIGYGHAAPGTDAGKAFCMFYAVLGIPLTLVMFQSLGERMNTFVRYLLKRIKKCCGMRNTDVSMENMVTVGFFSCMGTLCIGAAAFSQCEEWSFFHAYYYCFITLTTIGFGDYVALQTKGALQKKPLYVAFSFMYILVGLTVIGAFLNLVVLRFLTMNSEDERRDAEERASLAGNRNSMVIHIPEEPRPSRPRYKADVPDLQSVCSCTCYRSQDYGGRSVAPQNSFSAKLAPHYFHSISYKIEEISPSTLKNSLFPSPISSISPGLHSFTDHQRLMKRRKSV

With “1-(octadeca-2E,4E,13/12Z-trienoyl)-pyrrolidine [5b/6b]”, the “effect on basal activity of hKCNK3” value at hKCNK3 (Xenopus oocytes) is “most pronounced effect”. The half-maximal inhibitory concentration (IC50) amounted to 19 ± 2.1 µM at hKCNK3 (setting [2]) and 236 ± 56 µM at hKCNK9 (N = 3–6). Further, the “% of basal activity after saturating concentrations” value (shortened to “% of basal activity”) at hKCNK3 is listed as 27 ± 3%. Further, the “effect on basal activity of hKCNK9” value on hKCNK9 is “inhibited”.

Consider `O=C(/C=C/C=C/c1ccc2c(c1)OCO2)N1CCCC1` [1b, piperyline], for which, on hKCNK3 (Xenopus oocytes), the “effect on basal activity of hKCNK3” value was “decrease in their basal activity”. Moreover, at hKCNK3 (setting [2]), the 50% inhibitory concentration (IC50) is 180 ± 39 µM. Moreover, at hKCNK3, the “% of basal activity” value stood at 55 ± 5%. In addition, the “effect on basal activity of hKCNK9” value on hKCNK9 is given as “decrease in their basal activity”. Moreover, the “effect on basal activity of hKCNK18” value at hKCNK18 (1 mM) is “decrease in their basal activity”. On hKCNK18 (N = 3–6), this compound showed an IC50 of 252 ± 55 µM. Besides, in the assay with tongue surface, the pungent threshold concentration is 5.1 nmol/cm^2 and the “threshold for oral pungency” value was 0.005 μmol/cm^2.

For the compound `O=C(/C=C/C=C/C=C/c1ccc2c(c1)OCO2)N1CCCCC1` [2a, piperettine], the pungent threshold concentration in the assay on tongue surface is reported as 5.2 nmol/cm^2.

Take `O=C(/C=C/C=C/CC/C=C/c1ccc2c(c1)OCO2)N1CCCCC1` [3a, dehydropipernonaline]: the concentration for half-maximal inhibition (IC50) at hKCNK3 (setting [2]) stood at 44 ± 6.7 µM. Moreover, the “% of basal activity” value on hKCNK3 was determined as 39 ± 1%. For the same compound, in the assay with tongue surface, the pungent threshold concentration is on record as 152.1 nmol/cm^2.

With `O=C(/C=C/C=C/CC/C=C/c1ccc2c(c1)OCO2)N1CCCC1` [3b, 1-[1-oxo-9(3,4-methylenedioxyphenyl)-2E,4E,8E-nonatrienyl]-pyrrolidine], the “effect on basal activity of hKCNK3” value on hKCNK3 (Xenopus oocytes) is recorded as “most pronounced effect”. In addition, the IC50 at hKCNK3 (setting [2]) amounted to 49.6 ± 8.5 µM. On hKCNK3, the “% of basal activity” value is listed as 35 ± 3%.

Regarding `O=C(/C=C/C=C/CCCCCC/C=C/c1ccc2c(c1)OCO2)N1CCCC1` [4b, brachyamide A], at hKCNK3 (Xenopus oocytes), the “effect on basal activity of hKCNK3” value was “most pronounced effect”. For the same compound, the 50% inhibitory concentration (IC50) at hKCNK3 (setting [2]) worked out at 32 ± 11 µM. The “% of basal activity” value at hKCNK3 was determined as 51 ± 5%.

With `CC(C)CNC(=O)/C=C/C=C/CCCCCC/C=C/c1ccc2c(c1)OCO2` [4c, guineensine], at hKCNK3, inhibition was half-maximal at 90.9 ± 12.7 µM (IC50) and the “% of basal activity” value is reported as 48 ± 2.8%. Besides, the pungent threshold concentration in the assay on tongue surface was 810.1 nmol/cm^2.

Turning to `CCCC/C=C\CCCCCCC/C=C/C=C/C(=O)NCC(C)C` [5c, (2E,4E,13Z)-N-isobutyl-octadeca-2,4,13-trienamide], in the assay on tongue surface, the pungent threshold concentration is 540.5 nmol/cm^2 and the tingling threshold concentration is listed as 2162.1 nmol/cm^2.

On to `CCCCC/C=C\CCCCCC/C=C/C=C/C(=O)NCC(C)C` [6c, (2E,4E,12Z)-N-isobutyl-octadeca-2,4,12-trienamide], for which, in the assay with tongue surface, the pungent threshold concentration is 540.5 nmol/cm^2 and the tingling threshold concentration is given as 2162.1 nmol/cm^2.

For the compound `CCCCCCCCCCCCC/C=C/C=C/C(=O)NCC(C)C` [7c, (2E,4E)-N-isobutyl-octadeca-2,4-dienamide], the pungent threshold concentration with tongue surface is recorded as 763.0 nmol/cm^2.

Take `CCCC/C=C\CCCCCCCCC/C=C/C=C/C(=O)NCC(C)C` [8c, (2E,4E,15Z)-N-isobutyl-eicosa-2,4,15-trienamide]: in the assay with tongue surface, the pungent threshold concentration is 741.2 nmol/cm^2 and the tingling threshold concentration is on record as 1482.3 nmol/cm^2.

With `CCCCC/C=C\CCCCCCCC/C=C/C=C/C(=O)NCC(C)C` [9c, (2E,4E,14Z)-N-isobutyl-eicosa-2,4,14-trienamide], in the assay with tongue surface, the pungent threshold concentration is 741.2 nmol/cm^2 and the tingling threshold concentration was 1482.3 nmol/cm^2.

Take `O=C1c2ccccc2C(Cc2ccncc2)(Cc2ccncc2)c2ccccc21` [XE-991, reference compound]: in assay [1], the “effect of pre-incubation on background current” value is listed as “marked decrease”.

As for “(2E,4E,13/12Z)-N-isobutyl-octadeca-2,4,12/13-trienamide [5c/6c]”, the IC50 at hKCNK3 (setting [2]) is 70 ± 32.8 µM. Further, the “% of basal activity” value at hKCNK3 is 57 ± 7%.
